Data published in patent publication US12433870B2, “Supramolecular photoprotection of a photosensitizer” (Northwestern University, priority 2019, dated 2025).
“Also recorded” adds a separate entry of the source.

Columns and labels:
[1] = test system: A2780 cells; assay: Cellular uptake studies by flow cytometry (MFI); format: cell-based, human; conditions: 10 μM, 30 min to 12 h
Experimental: A2780 cells (5×10^5 cells/mL, 200 μL) were seeded in each well of a 48-well plate and treated with 10 μM PBS solution of ExBox^4+⊃DPP for 30 min, 1 h, 2 h, 6 h, and 12 h. Cells were washed with PBS, trypsinized, and incubated with 50 μL of 1:100 Zombie Aqua fixable cell viability dye for 15 min at 4° C. After incubation, cells were washed with 600 μL PBS, spun at 400 ref for 5 min, and the supernatant was discarded. Cells were then suspended in 100 μL of 2% paraformaldehyde prior to being analyzed using a BD Fortessa flow cytometer. Cells were first gated for singlet events using FSC-A vs. FSC-H, after which debris was excluded used FSC-A vs. SSC-A. Cells gated as Zombie Aqua low were considered live cells, which were then analyzed for their median fluorescence intensity (MFI) in the PE-Cy5 channel for ExBox^4+⊃DPP fluorescence, representing the amount of ExBox^4+⊃DPP taken up by each cell.

[2] = pH-dependent release of DPP from the complex (fluorescence and transient absorption, pH 4.5); format: physicochemical
Description: At low pH, DPP can be protonated. Therefore, the electrostatic repulsion between the cationic DPP and the tetracationic host ExBox^4+ can trigger release of DPP in H2O. Indeed, when aqueanous solution of ExBox^4+⊃DPP is acidified with HCl (pH 4.5), protonated DPP was released in H2O leading to 17-fold increment of fluorescence signals (FIG. 4A). […] The residual population survived for several microseconds and has a transient absorption spectrum of ^3*DPP; the […] (FIGS. 4D-4E) approximates the decay of the long-lived triplet state in aerated, room temperature aqueous solution. […] We estimate this fraction to be approximately 30% at the ˜20 μM concentration of the transient absorption experiments.
The setup for transient absorption measurements has been described elsewhere.^3 Photoexcitation pulses at 414 nm were obtained through a beta barium borate (BBO) crystal doubling the fundamental, and the 575 nm pulses were generated with a laboratory-constructed optical parametric amplifier. The pulse power for photoexcitation was attenuated to ˜1 μJ/pulse, using neutral density filters. The pump polarization was randomized employing a commercial depolarizer (DPU-25-A, Thorlabs, Inc.) to eliminate any orientational dynamics contributions from the experiment. […]

[3] = test system: A2780 cells; assay: Intracellular ROS generation (DCFDA assay); format: cell-based, human; conditions: 10 μM/0.156 J cm^−2 light dose, compared with dark or untreated cells
Experimental: Intracellular ROS generation assay was performed using DCFDA Cellular ROS Detection Assay Kit (Abeam), according to the manufacturer's instructions. Briefly, A2780 cells (2.5×10^5 cells/mL, 100 μL) were seeded in each well of a black 96-well plate and incubated with PBS solution of ExBox^4+⊃DPP for 12 h. After incubation, cells were washed with PBS and incubated with 2′,7′-dichlorofluorescin diacetate (DCFDA) (20 μM) for 45 min in the dark. Then the cells were rinsed with PBS, irradiated and fluorescence was measured (λex=485 and λem=535 nm) using a microplate reader. Control experiments with PBS solution of ExBox^4+⊃DPP treated cells and untreated cells, both with and without irradiation were performed.

[4] = Detection of singlet oxygen (ADPA chemical method, methylene blue reference); format: physicochemical; conditions: H2O, 20 μM, 630 nm, 50 mW, 20 min
Experimental: Singlet oxygen (^1O2) quantum-yield measurements were conducted by a chemical method. The disodium salt of 9.10-anthracenedipropionic acid (ADPA) was used as singlet oxygen detection reagent with methylene blue used as a reference (Φt=0.53). In this experiment, ADPA (0.1 μmol) was added to the H2O solution of ExBox^4+⊃DPP (20 μM) with a laser irradiation (630 nm, 50 mW) for 20 min, followed by quantification of ^1O2 by the absorbance intensity change (UV-3600 Shimadzu spectrophotometer) at 380 nm of ADPA. The calculation of ^1O2 quantum yield is based on the equality ΦΔ=(ΔAs/[…])Φr. ΔAs is the absorption change of detected photosensitizer, ΔAr is the absorption change of referenced photosensitizer and Φ^r is the quantum yield of singlet oxygen of referenced photosensitizer (methylene blue).
(§1) ADPA (0.1 μmol) was added to the H2O solution of DPPH2^+ (20 μM) with a laser irradiation (630 nm, 50 mW) for 20 min, followed by quantification of the ^1O2 by the absorbance intensity change (UV-3600 Shimadzu spectrophotometer) at 380 nm of ADPA. The calculation of the ^1O2 quantum yield is based on the equality ΦΔ=(ΔAs/ΔAr)Φr where ΔAs is the absorption change of detected photosensitizer, ΔAr is the absorption change of referenced photosensitizer and Φr is the quantum yield of singlet oxygen of referenced photosensitizer (methylene blue). Measured ^1O2 quantum yield of DPPH2^2+ is 0.38 in H2O.
as §1, with “acetone” for “H2O”, “DPP” for “DPPH2^+”, “DPP” for “DPPH2^2+”, “0.43” for “0.38”, “acetone.” for “H2O.”

C1=Cc2nc1cc1ccc([nH]1)c(-c1ccccc1)c1nc(cc3ccc([nH]3)c2-c2ccccc2)C=C1.c1cc2ccc1C[n+]1ccc(cc1)-c1ccc(cc1)-c1cc[n+](cc1)Cc1ccc(cc1)C[n+]1ccc(cc1)-c1ccc(cc1)-c1cc[n+](cc1)C2 [ExBox^4+⊃DPP]
uptake and DPP fluorescence signal (MFI) [1]: time-dependent increase | increment of fluorescence signals on release of protonated DPP ([2]; aqueous solution acidified with HCl (pH 4.5) versus pH 7, λex=414 nm): 17 fold | fraction of the complex population with DPP released (electron transfer turned off) ([2]; pH 4.5, ~20 μM, transient absorption): approximately 30% | increase in intracellular ROS [3]: 20 fold | singlet oxygen generation upon photoexcitation [4]: did not generate any singlet oxygen; also recorded: ^1O2 was not generated
